Experimental data published in the supplement of paper PMC8967900.

Experiments:
Assay in all cases: selective drug sensitivity score (sDSS, relative to normal bone marrow) (sDSS (score)); higher = more potent and effective on the cell line relative to normal bone marrow cells
Settings in all cases: 72 h
380 = test system: 380
ALL-SIL = test system: ALL-SIL
COG-LL-319h = test system: COG-LL-319h
COG-LL-355h = test system: COG-LL-355h
JURKAT = test system: JURKAT
KARPAS-45 = test system: KARPAS-45
KASUMI-10 = test system: KASUMI-10
KASUMI-9 = test system: KASUMI-9
MHH-CALL-2 = test system: MHH-CALL-2
MHH-CALL-3 = test system: MHH-CALL-3
MHH-CALL-4 = test system: MHH-CALL-4
MN-60 = test system: MN-60
NALL-1 = test system: NALL-1
NALM-16 = test system: NALM-16
NALM-6 = test system: NALM-6
PEER = test system: PEER
PF-382 = test system: PF-382
REH = test system: REH
RPMI-8402 = test system: RPMI-8402
TMD5 = test system: TMD5
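Also: ALL cell lines in 384-well plates, five doses spanning 10,000-fold, each plate scaled between vehicle and 100 µmol/L benzalkonium chloride controls, sDSS an adapted area-under-curve metric.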

SMILES | selective drug sensitivity score 380 | selective drug sensitivity score (ALL-SIL) | selective drug sensitivity score (COG-LL-319h) | selective drug sensitivity score (COG-LL-355h) | selective drug sensitivity score (JURKAT) | selective drug sensitivity score (KARPAS-45) | selective drug sensitivity score (KASUMI-10) | selective drug sensitivity score (KASUMI-9) | selective drug sensitivity score (MHH-CALL-2) | selective drug sensitivity score (MHH-CALL-3) | selective drug sensitivity score (MHH-CALL-4) | selective drug sensitivity score (MN-60) | selective drug sensitivity score (NALL-1) | selective drug sensitivity score (NALM-16) | selective drug sensitivity score (NALM-6) | selective drug sensitivity score (PEER) | selective drug sensitivity score (PF-382) | selective drug sensitivity score (REH) | selective drug sensitivity score (RPMI-8402) | selective drug sensitivity score (TMD5)
Cc1cc(F)c(C(=O)Nc2cccc(-c3nncn3C(C)C)n2)cc1-n1cnc(C2CC2)c1 [Selonsertib] (top concentration 1000 nM) | 1 | 0 | 0 | 0 | 0 | 0 | 0 | 1.2 | 11.5 | 0 | 0.2 | 0 | 0 | 0 | 0 | 0 | 0 | 0 | 0 | 6.7
Nc1nc2cc(-c3ccc4ncc(C(=O)N5CCOCC5)n4c3)ccc2o1 [Serabelisib] (top concentration 10000 nM) | -0.44 | 0.36 | -0.44 | 4.06 | -1.54 | 0.06 | -1.54 | 2.56 | 3.06 | -1.54 | 0.46 | -1.54 | -0.64 | -1.44 | -1.44 | -1.04 | 0.36 | 0.76 | -1.54 | -1.54
CCC(C)(C)C(=O)O[C@H]1C[C@@H](C)C=C2C=C[C@H](C)[C@H](CC[C@@H]3C[C@@H](O)CC(=O)O3)[C@H]21 [Simvastatin] (top concentration 10000 nM) | 4.88 | 2.38 | 0.68 | 3.48 | -0.52 | 2.58 | -0.72 | 4.18 | 9.58 | 6.08 | 2.58 | -0.72 | 3.48 | -0.72 | 0.08 | 1.48 | 0.08 | 0.88 | 2.08 | 5.78
C=CCN(/C=C1/C(=O)O[C@H](COC)[C@@]2(C)C1=C(O)C(=O)C1=C2[C@H](OC(C)=O)C[C@]2(C)C(=O)CC[C@@H]12)CC=C [Sonolisib] (top concentration 10000 nM) | -0.56 | 2.64 | 4.24 | 0.94 | -0.76 | -0.76 | -0.76 | 0.14 | 0.34 | -0.76 | -0.06 | -0.76 | -0.76 | -0.56 | -0.56 | -0.76 | -0.76 | -0.76 | -0.76 | -0.76
CC(C)n1cnc2c(NCCc3ccc(O)cc3)nc(-c3csc4ccccc34)nc21 [StemRegenin_1] (top concentration 10000 nM) | -1.8 | 3.8 | -1.8 | -0.1 | 1 | 3.9 | -1.8 | -0.5 | 2.5 | -1.8 | -1.8 | 2.7 | -1.4 | -1.8 | 1.1 | 1.5 | 0.9 | 1.8 | -0.7 | -1.8
CC(C)(O)CC(=O)NCCn1ccc2ncnc(Nc3ccc(Oc4cccc(C(F)(F)F)c4)c(Cl)c3)c21 [TAK-285] (top concentration 2500 nM) | 0 | 0 | 0 | 0 | 0 | 0 | 0 | 3.3 | 1.6 | 0 | 0 | 0 | 0.1 | 0 | 0 | 0 | 0 | 0.1 | 0 | 3.1
Nc1nc(N)c2nc(-c3cccc(O)c3)c(-c3cccc(O)c3)nc2n1 [TG100-115] (top concentration 10000 nM) | 2.1 | 0.7 | 0.6 | 3.7 | -0.3 | 0.8 | 0.1 | 1.6 | 5.2 | -0.4 | -0.4 | -0.4 | 4.6 | 0.5 | -0.4 | -0.2 | -0.2 | 5.1 | 0 | 3
CC/C(=C(\c1ccccc1)c1ccc(OCCN(C)C)cc1)c1ccccc1 [Tamoxifen] (top concentration 10000 nM) | 0.02 | 3.12 | 5.42 | 1.82 | -1.48 | 1.92 | -3.28 | 1.52 | 0.82 | -2.48 | 0.52 | -1.58 | 3.82 | -3.18 | 0.42 | 1.02 | 1.72 | 1.02 | 0.42 | -0.48
COc1cc2c(N3CCN(C(=O)Nc4ccc(OC(C)C)cc4)CC3)ncnc2cc1OCCCN1CCCCC1 [Tandutinib] (top concentration 1000 nM) | 0 | 0 | 0 | 0 | 0 | 0 | 4.5 | 0 | 0 | 0 | 0 | 0 | 0 | 0.8 | 0 | 0 | 0 | 0 | 0 | 0
Cn1nnc2c(C(N)=O)ncn2c1=O [Temozolomide] (top concentration 100000 nM) | 5.66 | 4.66 | -0.04 | -0.04 | 2.36 | 5.76 | -0.04 | 6.16 | 3.36 | 4.76 | -0.04 | -0.04 | -0.04 | -0.04 | 2.26 | -0.04 | 3.16 | 6.66 | 1.46 | -0.04
CN1CCC(COc2cnc(-c3cccc(Cn4nc(-c5cccc(C#N)c5)ccc4=O)c3)nc2)CC1 [Tepotinib] (top concentration 1000 nM) | -0.08 | -0.08 | 2.22 | -0.08 | -0.08 | -0.08 | -0.08 | -0.08 | -0.08 | -0.08 | -0.08 | -0.08 | -0.08 | -0.08 | -0.08 | 0.02 | -0.08 | -0.08 | -0.08 | -0.08
NC(=S)N/N=C/c1ncccc1N [Triapine] (top concentration 10000 nM) | 5.88 | 6.78 | 10.6 | 1.08 | 2.28 | -0.12 | 6.88 | 3.98 | 3.48 | 2.08 | 2.18 | 1.48 | 3.48 | 2.68 | 4.48 | 2.08 | 1.28 | 3.88 | 2.38 | 2.28
NC(=O)c1cccc(-c2cccc(OC(=O)NC3CCCCC3)c2)c1 [URB597] (top concentration 1000 nM) | 2.44 | -0.46 | 5.14 | -0.06 | -0.46 | -0.46 | -0.46 | 0.04 | 0.54 | -0.46 | -0.46 | -0.46 | -0.46 | -0.46 | 2.44 | -0.46 | -0.46 | -0.46 | -0.46 | -0.46
COc1cc2/c(=N/c3ccc(Br)cc3F)nc[nH]c2cc1OCC1CCN(C)CC1 [Vandetanib] (top concentration 1000 nM) | -0.22 | 2.68 | -0.22 | -0.22 | -0.22 | 0.68 | -0.22 | -0.22 | 4.38 | 0.78 | -0.22 | -0.22 | 2.28 | -0.22 | -0.22 | 1.38 | 0.48 | -0.22 | -0.22 | 5.38
COc1cccc(-c2ccc(NC(=O)C3=C(C(=O)O)CCC3)c(F)c2)c1 [Vidofludimus] (top concentration 10000 nM) | 5 | 3.2 | 6.9 | 0 | 8.2 | 3.9 | 0.5 | 2.7 | 3 | 0.7 | 2.8 | 12.3 | 1.9 | 3.5 | 3.4 | 5.1 | 4.8 | 8.9 | 3.9 | 0
CC[C@]12C=CCN3CC[C@@]4(c5cc([C@@]6(C(=O)OC)C[C@@H]7C[C@@H](C(C)(F)F)CN(Cc8c6[nH]c6ccccc86)C7)c(OC)cc5N(C)[C@H]4[C@@](O)(C(=O)OC)[C@@H]1OC(C)=O)[C@@H]32 [Vinflunine] (top concentration 1000 nM) | 5.98 | 10.3 | 2.98 | 2.68 | 4.48 | 4.48 | 4.08 | 6.78 | 2.88 | -0.12 | 0.58 | 0.58 | 2.98 | 4.08 | 5.18 | 5.08 | 2.68 | 4.18 | 4.78 | 0.28
